Experimental data reported in PubChem BioAssay AID1996.
Converted amounts (≈) assume the structure as drawn.

Conditions: buffer; pH 7.4; 200.0 µM

Compound	solubility kinetic
O=C(Cc1cccs1)N1CCN=C1SCc1ccccc1Cl	6.6 µg/mL (≈ 18.8 µM)
COc1ccc(CN2CCOCCOCCOCC2)cc1	39.1 µg/mL (≈ 132 µM)
Cc1cccc(C)c1NC(=O)[C@@]1(CC(=O)O)CC(/C=C/c2ccccc2)=NO1	> 56.8 µg/mL
COC(=O)c1sccc1NC(=O)c1ccc(OC)c([N+](=O)[O-])c1	< 0.4 µg/mL
COc1ccc(C(=O)n2cnc3ccccc32)cc1Br	46.7 µg/mL (≈ 141 µM)
Cc1ccc(S(=O)(=O)N2CCN(C(=O)COC(=O)/C=C/c3ccc([N+](=O)[O-])cc3)CC2)c(C)c1	1.9 µg/mL (≈ 3.9 µM)
O=C(NCc1ccccn1)C1CCCCC1	> 32.7 µg/mL
Nc1ccc(Oc2ccc3c(c2)C(=O)N(CC2CCCO2)C3=O)cc1 (centres undefined)	> 50.8 µg/mL
COCC(C)NC(=O)c1cc2c(ccc3ccccc32)oc1=O (centres undefined)	18.1 µg/mL (≈ 58.1 µM)
CC1(O)CCN2C(=O)CCc3cccc1c32 (centres undefined)	19.3 µg/mL (≈ 88.8 µM)
CCOC(=O)C(CC(=O)O)NCc1ccco1 (centres undefined)	34.3 µg/mL (≈ 142 µM)
CN(C)CCC=C1c2ccccc2CCc2ccccc21.Cl	> 47.1 µg/mL
CCC(C)c1ccc(NC(=O)Nc2cccnc2)cc1 (centres undefined)	33.2 µg/mL (≈ 123 µM)
S=C(NCc1ccccc1)Nc1ccc2ccccc2c1	0.9 µg/mL (≈ 3.08 µM)
O=Cc1cn(CC(=O)Nc2ccc3c(c2)OCO3)c2ccccc12	0.4 µg/mL (≈ 1.24 µM)
COc1ccc(S(=O)(=O)N(C)CC(=O)N2CCCC2)cc1OC	> 51.4 µg/mL
O=C1CSC(=S)N1c1cccc(F)c1	1 µg/mL (≈ 4.4 µM)
CCOC(=O)C1=C(C)N(C)C(=O)NC1c1c(O)ccc2ccccc12 (centres undefined)	> 51.1 µg/mL
O=C(NCCNC(=O)c1ccco1)c1ccco1	30.5 µg/mL (≈ 123 µM)
Cc1noc(-c2ccc(Cl)cc2)c1C(=O)O/N=C(\N)c1ccc(C(C)(C)C)cc1	0.5 µg/mL (≈ 1.21 µM)
COC(=O)c1cc(C(=O)OCC(=O)N2CCCCC2)cc([N+](=O)[O-])c1	> 52.5 µg/mL
O=C(Cc1ccccc1)NCc1ccncc1	28.2 µg/mL (≈ 125 µM)
COc1cc(OC)cc(C(=O)NCc2ccc3[nH]c(C)cc3c2)c1	3.3 µg/mL (≈ 10.2 µM)
CN(C)c1ccc(C=C2C(=O)NC(=O)NC2=O)cc1[N+](=O)[O-]	> 45.6 µg/mL

Compound	solubility kinetic
Cc1ccc(/C=C/C(=O)Nc2ccc(S(N)(=O)=O)cc2)o1	> 46 µg/mL
CCOC(=O)Cc1nc2nc(C)cc(C)n2n1	> 35.1 µg/mL
Cc1cnc(NC(=O)Cc2ccc(C)c(C)c2)s1	2 µg/mL (≈ 7.68 µM)
CCOC(=O)c1c(C)[nH]c(C(=O)COC(=O)c2ccco2)c1C	3.1 µg/mL (≈ 9.71 µM)
COc1ccccc1NC(=O)C(C)OC(=O)Cc1ccsc1 (centres undefined)	> 47.9 µg/mL
Cc1ccccc1C(=O)Nc1cccc(NC(=O)c2cccs2)c1	17.7 µg/mL (≈ 52.6 µM)
O=C(COc1ccc(Br)cc1F)NCC1(N2CCCCC2)CCCCC1	> 64.1 µg/mL
O=C(Nc1ccc(F)cc1)NC1CCCc2ccccc21 (centres undefined)	0.7 µg/mL (≈ 2.46 µM)
COc1ccc(OC)c(N(CC(=O)N2CCCC2)S(C)(=O)=O)c1	> 51.4 µg/mL
O=[N+]([O-])c1ccc(N2CCCCC2)nc1	29.2 µg/mL (≈ 141 µM)
CC(=O)NC(=S)Nc1cc(C(=O)O)ccc1Cl	> 40.9 µg/mL
CC(CN1CCOCC1)OC(=O)c1ccc(C(C)(C)C)cc1.Cl (centres undefined)	18.2 µg/mL
Cc1cnc(=O)[nH]c1SCc1ccc(C(F)(F)F)cc1	5.1 µg/mL (≈ 17 µM)
Cc1cc(C(=O)OCC(=O)N(C)c2ccccc2)c2ccccc2n1	> 50.2 µg/mL
O=C(NCc1ccncc1)C1=NN(c2ccccc2)C(=O)CC1	> 46.3 µg/mL
COc1cccc2[nH]c3c(N4CCC5(CC4)OCCO5)ncnc3c12	> 51.1 µg/mL
Cc1ccc(N/C=C/C(=O)c2ccco2)c(O)c1	1.4 µg/mL (≈ 5.76 µM)
COc1cccc(CN(C)C(=O)c2cc(S(=O)(=O)N3CCCC3)ccc2C)c1OC	> 64.9 µg/mL
CN(C)CCCC1Sc2ccccc2Sc2ccccc21.O=C(O)C(=O)O (centres undefined)	> 60.8 µg/mL
NC(=O)CSc1nc2cccnc2n1-c1ccc(F)cc1	45.2 µg/mL (≈ 150 µM)
CCCSc1nc2ccccc2n1CC(=O)O	> 37.5 µg/mL
O=c1oc2cccnc2n1CCS(=O)(=O)c1ccc(F)cc1	45 µg/mL (≈ 140 µM)
CCCCn1c(N)c(N(CCOC)C(=O)c2ccc3c(c2)C(=O)N(c2ccccc2Cl)C3=O)c(=O)[nH]c1=O	> 81 µg/mL
OCCNc1nc(N2CCOCC2)nc(N2CCOCC2)n1	44.7 µg/mL (≈ 144 µM)

Compound	solubility kinetic
CC(=O)N1C(C(=O)O)Cc2c([nH]c3ccccc23)C1C (centres undefined)	> 40.8 µg/mL
CCN1CCN(c2nc3c(C)cccn3c(=O)c2C=C(C#N)C#N)CC1	51.1 µg/mL (≈ 147 µM)
Cc1sc2ncnc(Sc3ccccc3C(=O)O)c2c1C	46.9 µg/mL (≈ 148 µM)
CC(=O)Nc1ccc(SCC(=O)Nc2ccc3c(c2)OCCO3)cc1	> 53.8 µg/mL
Cc1ccc(OCC(=O)NC2CC(C)(C)NC(C)(C)C2)c(C)c1	> 47.8 µg/mL
O=[N+]([O-])c1ccc(O)c([N+](=O)[O-])c1	> 27.6 µg/mL
COCC(C)n1c(SCC(=O)N2CCOCC2)nc2ccccc2c1=O (centres undefined)	> 56.6 µg/mL
CCOc1ccc(-c2nc3scc(-c4cccs4)c3c(=O)[nH]2)cc1	< 0.4 µg/mL
CC(=O)N1CCN(C(=O)c2ccc(C(=O)c3ccccc3)cc2)CC1	> 50.5 µg/mL
COc1ccc(CCC(=O)NCc2ccccc2Cl)cc1OC	> 50.1 µg/mL
Cc1ccc2nc(N3CCOCC3)c(C=O)c(=O)n2c1	> 41 µg/mL
COc1ccccc1N1C(=O)S/C(=C\c2ccc(C)s2)C1=O	< 0.7 µg/mL
CCOC(=O)c1cnc(-c2ccccc2)nc1Oc1ccc(OC)cc1	< 0.4 µg/mL
O=C(O)c1ccc2ncsc2c1	> 26.9 µg/mL
C=CC#CC1(O)CC(C)N(C)CC1C (centres undefined)	> 29 µg/mL
O=C(Nc1ccccc1Cl)c1cc(=O)c2ccccc2o1	0.7 µg/mL (≈ 2.34 µM)
Cc1cc(Cl)ccc1NC(=O)c1ccc2c(c1)OCO2	2.5 µg/mL (≈ 8.63 µM)
COc1ccc(/C=C/C(=O)N2CCN(c3ccccn3)CC2)cc1	13.9 µg/mL (≈ 43 µM)
C/C(=C\C(=O)c1cccnc1)Nc1ccc(C(=O)O)cc1	31.3 µg/mL (≈ 111 µM)
COc1cc(C=O)ccc1OCc1ccncc1	35.2 µg/mL (≈ 145 µM)
CCOC(=O)C1CCCN(C/C=C/c2ccccc2)C1 (centres undefined)	20.5 µg/mL (≈ 75 µM)
CC(=O)N1CCN(C(=O)c2ccc(Cl)c(S(=O)(=O)N3CC(C)OC(C)C3)c2)CC1 (centres undefined)	> 66.6 µg/mL
COCCn1c(=S)[nH]c2sc3c(c2c1=O)CCC(C)C3 (centres undefined)	40.4 µg/mL (≈ 130 µM)
CN1C2CCC1CC(NC(=O)c1ccc(Cl)cc1)C2 (centres undefined)	> 41.8 µg/mL

Compound	solubility kinetic
Cn1nccc1C(=O)N1CCN(c2ccccc2F)CC1	> 43.2 µg/mL
COc1cc(CNC(C)C23CC4CC(CC(C4)C2)C3)cc(OC)c1OC.Cl (centres undefined)	> 59.4 µg/mL
COc1ccc(N/C(N)=N/c2nc(C)cc(=O)[nH]2)cc1	6.8 µg/mL (≈ 24.9 µM)
Cn1c(N2CCOCC2)c(C=O)c2ccccc21	> 36.6 µg/mL
O=C(c1ccc(Oc2ccc(Cl)cc2)c([N+](=O)[O-])c1)N1CCCC1	41.1 µg/mL (≈ 119 µM)
O=C(COC(=O)c1cc[n+]([O-])cc1)NC(=O)c1ccc(OC(F)F)cc1	> 54.9 µg/mL
O=C(CCCc1ccccc1)N1CCN(C2CCCCC2)CC1	46.6 µg/mL (≈ 148 µM)
COC(=O)c1ccc(S(=O)(=O)NCCc2ccccc2OC)n1C	23 µg/mL (≈ 65.3 µM)
CCc1ccccc1NC(=S)N1CCN(c2cccc(OC)c2)CC1	2.2 µg/mL (≈ 6.19 µM)
Cc1cc2ncn(C(=O)c3ccc(F)cc3)c2cc1C	21.6 µg/mL (≈ 80.5 µM)
CC(OC(=O)C1=Cc2ccccc2OC1)C(=O)NCc1ccco1 (centres undefined)	7.1 µg/mL (≈ 21.7 µM)
O=C(/C=C/c1ccc(Cl)c(Cl)c1)Nc1cccnc1	0.6 µg/mL (≈ 2.05 µM)
Cc1oc(/N=C/c2ccccc2)c(C#N)c1C	9.2 µg/mL (≈ 41 µM)
N#Cc1ccc(NCC(=O)Nc2ccc3c(c2)OCCO3)cc1	29.6 µg/mL (≈ 95.7 µM)
C/C(=N/OC(=O)C1CC1c1ccccc1)c1ccccc1 (centres undefined)	3.6 µg/mL (≈ 12.9 µM)
Nc1nnc(SCC(=O)OCC(=O)c2ccccc2)s1	> 46.4 µg/mL
CC1CCCN(C(=O)COC(=O)COc2ccc(C#N)cc2)C1 (centres undefined)	> 47.5 µg/mL
CCC(=O)c1ccc(OCC(=O)NCCc2ccccn2)cc1	> 46.9 µg/mL
Cc1ccc(NC(=O)C23CCC(C)(C(=O)[C@H]2Br)C3(C)C)cc1 (some centres undefined)	43.2 µg/mL (≈ 119 µM)
CCN(CC)CCn1c(N)nc2ccccc21.Cl	44.7 µg/mL
O=c1ccc2ccccc2n1Cc1cccc(F)c1	> 38 µg/mL
O=C(NCc1ccccc1)c1ccc[n+]([O-])c1	> 34.2 µg/mL
O=C(O)c1ccc(NS(=O)(=O)c2cc(Cl)sc2Cl)cc1	> 52.8 µg/mL
N#CC1=C(N)Oc2c(ccc3cccnc23)C1c1ccccc1 (centres undefined)	9.8 µg/mL (≈ 32.7 µM)

Compound	solubility kinetic
Cc1[nH]c2ccccc2c(=O)c1C(=O)/C=C/c1ccccc1	35.8 µg/mL (≈ 124 µM)
CN(Cc1ccccc1)C(=O)CC(=O)N(C)Cc1ccccc1	> 46.6 µg/mL
c1ccc(-c2csc(-c3ccncc3)n2)cc1	24.8 µg/mL (≈ 104 µM)
COc1ccc(CNc2nc3ccc(C)cc3s2)c(OC)c1OC	15.1 µg/mL (≈ 43.8 µM)
COc1cc(CNCc2ccc3c(c2)OCO3)c([N+](=O)[O-])cc1OC	46.6 µg/mL (≈ 135 µM)
Cc1ccccc1-c1nnc(SCC(=O)N2CCCC2)o1	> 45.5 µg/mL
CCCCN(CC(=O)NCc1ccc(F)cc1)C(=O)c1ccco1	48.5 µg/mL (≈ 146 µM)
CC(=O)N1CCN(CC(C)(C)NS(=O)(=O)c2ccc(C)cc2)CC1	46.6 µg/mL (≈ 132 µM)
COc1ccc(CC(=O)N2CCCC2)c(OC)c1	36.6 µg/mL (≈ 147 µM)
COc1ccc2c(c1)CC(=O)NC=C2	> 28.4 µg/mL
CN1CCN(Cc2nc3ccccc3n2C)CC1CCO (centres undefined)	34.3 µg/mL (≈ 119 µM)
CCN1C(=O)c2cccc3c(Cl)ccc(c23)C1=O	1 µg/mL (≈ 3.85 µM)
COc1ccc(CCNC(=O)NS(=O)(=O)c2ccc(C)cc2)cc1OC	> 56.8 µg/mL
CCOc1ccc(/C=N/OCC(=O)NCc2ccco2)cc1	> 45.3 µg/mL
CCOC(=O)c1ccc(NC(=O)C2CC3CCC2C3)cc1 (centres undefined)	22.2 µg/mL (≈ 77.3 µM)
CCc1ccccc1OCC(=O)OCC(=O)N1CC(=O)Nc2ccccc21	35.7 µg/mL (≈ 96.9 µM)
Cc1nc(C)n(C)c(=O)c1-c1ccccc1	> 32.1 µg/mL
Cc1ccc2[nH]c(C)c(CCNCc3cccnc3)c2c1.Cl	47.1 µg/mL
O=C1[C@@H]2CSCN2C(=O)CN1Cc1cccc(C(F)(F)F)c1	44 µg/mL (≈ 133 µM)
Cc1cc(C)cc(NC(=O)Nc2ccc3ccccc3n2)c1	< 0.2 µg/mL
COCc1cc(=O)[nH]c(N2CCN(c3ccccc3OC)CC2)n1	46.3 µg/mL (≈ 140 µM)
COc1cc(/C=C/C(=O)OCC(=O)NCCc2ccc(F)cc2)ccc1OC(F)F	4 µg/mL (≈ 9.45 µM)
COC(=O)c1cccc(NC(=O)c2cccc([N+](=O)[O-])c2)c1	3.8 µg/mL (≈ 12.7 µM)
